Patent US7091185B2, “Periodic antimicrobial peptides” (Dow Global Technologies Inc., priority 2003, dated 2006)
Where two headings read alike, the source gives them in different places. Where no end group is shown, it is not given here.

Columns and labels:
[1] = system: Red blood cells (RBC); assay: Red blood cell toxicity; format: cell-based
[2] = Red blood cell toxicity; format: cell-based; settings: red blood cells (RBC)
[3] = system: P. aeruginosa ATCC 10145; settings: ATCC 10145
Method: (§1) The bacteria tested were P. aeruginosa American Type Culture Collection Number (ATCC) 10145, E. coli ATCC 2592, and S. aureus (methicillin reseistant) ATTC 33591.
(§2) All experiments were compared to bacterial growth under optimal growth conditions (37° C., pH 7.0, absence of additional salt, growth media—referred to as standard growth conditions). In each plate, no growth control (media alone), positive growth control (bacteria with no test sample), positive antimicrobial controls (agents with known antimicrobial activity) and test compounds were tested.
(§3) The plates were incubated overnight, and the relative percent growth determined by optical density at 620 nm (OD620) using a […] […] PLUS™. […] All samples were tested in duplicate and each assay was repeated at least twice. […] IC50 and MIC are reported in μg/ml.

[4] = system: S. aureus (methicillin resistant) ATCC 33591
Method: as §1, §2, §3

[5] = system: E. coli ATCC 2592; settings: ATCC 2592
Method: as §1, §2, §3

[6] = system: P. aeruginosa ATCC 15442; assay: HMARQ biocidal kill activity; format: cell-based; settings: P. aeruginosa ATCC 15442 (gram−)
Method: (§4) Biocide efficacy protocols were improved by reducing sample size, organizing the test material into an array format, implementing most probable number (MPN) quantitation and using multi-channel liquid handling equipment. We call the new method “high-throughput microanalysis and rapid quantitation” or “HMARQ.” HMARQ is directly applicable to current industrial efficacy tests such as multi-cycle preservation challenge or time course disinfection tests.
(§5) HMARQ is performed in a high throughput plate, such as 96-well microtiter plates. Typical sample volumes have been reduced down to 200 to 300 μL, but can be reduced further if desired. In these samples, no more than 10% of the total volume will be composed of the biocide and organism solution, and all non-matrix additions are normalized for all samples.
(§6) The sample matrix is first inoculated with the desired concentration of microorganisms. Inoculated sample matrix is then added to the 96-well assay block containing the biocide(s) under study. Each sample block contains biocide treated samples and untreated control samples (lacking biocide). Once the samples are prepared, the entire block of samples is mixed by vortexing until each sample is homogenous. In general, the study starts once mixing is complete, and samples are removed as required for the analysis. When Kill Time testing (rate of biocide activity) is performed, the microorganisms are added after biocide addition to the samples, allowing for rapid mixing and analysis.
(§7) Bacterial concentration (CFU/mL) is determined using the most probable number method (MPN). The contaminated solution is serially diluted until the “no growth” endpoint is reached. The endpoint represents the MPN and is expressed in units of the bacterial concentration. A serial 1:10 dilution will yield a bacterial concentration resolution of 1 log and the log reduction is determined by comparing the concentration of organisms in a treated sample to the concentration of organisms in untreated samples. For example, if a sample requires four 1:10 dilutions before bacterial growth is lost then the MPN for bacterial concentration in the sample is less than or equal to 1×10^4 CFU/mL (1E4). […] This method of enumeration is generally applicable to all non-filamentous microorganisms.
(§8) Media included Tryptic Soy Broth (TSB) for bacteria and Sabouraud Dextrose Broth (SDB) for fungi. These are available commercially and prepared according to the manufacturers instructions. Indicator medium was TSB/R for bacteria and SDB/R for fungi. These were made by addition of 50 μM filter sterilized Resazurin to the sterilized and cooled medium. Tryptic Soy agar plates (TSA) and SDA slants were used to provide inoculant for bacterial and fungal cultures. The indicator dye appeared pink or white when bacterial growth was present.
(§9) Using the HMARQ test described above, periodic peptides were generated and tested for Kill Activity. In this experiment, a broader range of peptidezs were tested for activity. Units are expressed as ppm (μg/mL) needed for 3.5 log kill at 15 min or 24 hour and the results are shown below.

[7] = system: Staph. aureus ATCC 6538; assay: HMARQ biocidal kill activity; format: cell-based; settings: Staph. aureus ATCC 6538 (gram+)
Method: as §4, §5, §6, §7, §8, §9

[8] = system: HeLa cell line; assay: HeLa MTS cellular reduction toxicity assay; format: cell-based; settings: for TX50: 24 h, MTS
Method: The RBC protocol was from Blondelle (2000) and is described generally as follows: The toxicity toward the HeLa cell line was determined using a MTS (3-(4-5-dimethylthiazol-2-yl)-5-(3carboxymethoxyphenyl)-2-(4-sulfophenyl)-2H-tetrazolium, sodium salt) cellular reduction assay. MTS (2 mg/mL) was prepared in Dulbecco PBS (pH 7.35), filtered, aliquoted and stored at minus 20° C. In 96 well flat bottomed plates, cell suspensions (250 μL of 6×10^4 cell/mL in each well) were incubated for 48 h at 37° C. (5% CO2 incubator). The peptides (50 μL) were then added to the cell monolayer (following aspiration of the media from each well and addition of 50 μL of Dulbecco's Modified Eagles Medium) at varying concentrations derived from serial 2-fold dilutions, and the plates incubated for 24 h at 37° C. (5% CO2 incubator). Proliferation was then determined by adding a solution of phenazine methosulfate (PMS: 0.92 mg/mL in DPBS) to MTS at a 1:20 ration just prior to the assay. Twenty microliters MTS-PMS solution were added to each well and the plates incubated for 1 h at 37° C. (5% CO2 incubator). The relative percent toxicity was determined by comparing the absorbance at 490 nm of each peptide to the absorbance of cells without peptide. The TX50 (concentration required for 50% toxicity) was calculated using a sigmoidal curve fitting software (Graphpad Prism).

[9] = system: Cr. Neoformans 32045; format: cell-based
Method: (§10) The MIC and IC50 values were determined by a broth microdilution method according to guidelines of the National Committee for Clinical Laboratory Standard as follows: In 96-well tissue culture plates, a fixed volume of bacterial suspension in 2× broth (as defined below) was added to the mixtures or individual compounds dispensed at concentrations varying from 1,000 to 1 μg/ml derived from serial two-fold dilutions in sterile water. The bacteria tested were P. aeruginosa American Type Culture Collection Number (ATCC) 10145, E. coli ATCC 2592, and S. aureus (methicillin reseistant) ATTC 33591.
(§11) The plates were incubated overnight, and the relative percent growth determined by optical density at 620 nm (OD620) using a TITERTEK MULTISKAN PLUS™. […] IC50 values were calculated using a sigmoidal curve fitting software program (GRAPHPAD,™ ISI Software,™ San Diego, Calif.). All samples were tested in duplicate and each assay was repeated at least twice. In the following table, KFAK is the repeat unit and multimers of KFAK were tested. IC50 and MIC are reported in μg/ml.
(§12) Because the antibacterial activity of the periodic peptides was so promising, further experiments were performed to determine if the periodic peptides also had antifungal activity. The experimental design was similar to that above, with accommodation made for fungal growth requirements, including the use of Sabouraud Dextrose Broth (SDB) and Sabouraud Dextrose Agar (SDA) slants.

[10] = system: C. albicans 10231; format: cell-based; settings: 10231
Method: as §10, §11, §12

[11] = RBCs, concentration required for 50% toxicity, read-out: TX50
[12] = S. aureus (methicillin resistant) 33591, gram+

| Substance | % kill at 250 μg/ml [1] [%] | HC50 at 24 h [2, 11] [µg/mL] | IC50 [3] [µg/mL] | MIC [3] [µg/mL] | IC50 ([4]; ATCC 33591) [µg/mL] | MIC ([4]; ATCC 33591) [µg/mL] | IC50 [5] [µg/mL] | MIC [5] [µg/mL] | % kill at 500 μg/ml [8] [%] | TX50 [8] [µg/mL] | IC50 [9] [µg/mL] | MIC [9] [µg/mL] | IC50 [10] [µg/mL] | MIC [10] [µg/mL] | other results |
| --- | --- | --- | --- | --- | --- | --- | --- | --- | --- | --- | --- | --- | --- | --- | --- |
| RFARRFARRFARRFARRFARRFARRFAR [RFAR (7), RFAR RFAR RFAR RFAR RFAR RFAR RFAR] | 100 | 20 | 20 | 62 | 31 | 125 to 250 | 8 | 32 to 62 | 12.4 | 106 | 45 | 62 to 125 | 172 | 250 to 500 | ppm needed for 3.5 log kill at 15 min [6]: 63 ppm; ppm needed for 3.5 log kill at 24 hr [6]: 125 ppm; ppm needed for 3.5 log kill at 15 min [7]: >500 ppm; ppm needed for 3.5 log kill at 24 hr ([7]; 24 hr): 4 ppm |
| KFKKFKKFKKFKKFKKFK [KFK (6), KFK KFK KFK KFK KFK KFK] | −7 | > 500 | 74 | 125 | 322 | >500 | 39 | 62 to 125 | 77.8 | >500 | 33 | 40 to 62 | 164 | 250 to 500 | ppm needed for 3.5 log kill at 15 min [6]: >500 ppm; ppm needed for 3.5 log kill at 24 hr [6]: 125 ppm; ppm needed for 3.5 log kill at 15 min [7]: >500 ppm |
| FKLRAKIKVRLRAKIKL [D4E1, FKLRAKIKVRLRAKIKL, reference compound] | 77.2 | 134 | 6.2 | 8 to 16 | 6.3 | 32 to 62 | 3.3 | 8 to 16 |  |  | 1.8 | 8 to 16 | 70.6 | 80 to 125 |  |
| KFAKKFAKKFAKKFAKKFAK [KFAK (5), KFAK KFAK KFAK KFAK KFAK] |  | > 250 |  |  |  |  | 6 | 16 to 32 | 89 | >500 | 5 | 8 to 16 | 66 | 90 to 125 | % kill at 250 μg/ml ([1]; RBCs, 250 μg/ml): 4.1%; IC50 [4, 12]: >250 µg/mL; MIC [4, 12]: >250 µg/mL |
| H-KFAKKFAKKFAKKFAKKFAKKFAK-OH [KFAK (6), KFAK KFAK KFAK KFAK KFAK KFAK] | 7.3 |  | 5.6 |  | 38.7 | 125 to 250 | 4 | 8 to 16 | 30.5 | 457.3 | 5.8 | 16 to 32 | 72 | 80 to 125 | HC50 at 24 h [2]: > 250 µg/mL |
| KFAKKFAKKFAKKFAKKFAKKFAKKFAK [KFAK (7), KFAK KFAK KFAK KFAK KFAK KFAK KFAK] | 13.7 |  |  |  | 108.8 | >250 | 8 | 32 to 62 | 13.0 | 204.1 |  | 32 to 62 | 82 | 100 to 125 | TX50 [1]: >250 µg/mL; HC50 at 24 h [2]: > 250 µg/mL |
| KFAKKFAKKFAKKFAK [KFAK (4), KFAK KFAK KFAK KFAK] |  | > 250 |  |  |  |  | 46 | 62 to 125 | 76 | >500 | 5.3 | 6.0 to 8.0 | 70 | 90 to 125 | % kill at 250 μg/ml ([1]; RBCs, 250 μg/ml): 0.1%; IC50 [4, 12]: >250 µg/mL; MIC [4, 12]: >250 µg/mL |
